Data from patent US8545886B2, “Extended release tablet formulations of flibanserin and method for manufacturing the same” (Boehringer Ingelheim International GmbH, priority 2006, dated 2013).
Values after ≈ are worked out from the molar mass of the structure shown.

Assay: Solubility of flibanserin in aqueous media
Type: physicochemical
Source text: In acidic environment compounds such as flibanserin are usually very well water soluble whereas in neutral or basic environment these drugs can be practically insoluble. […] These physicochemical properties of basic compounds make it difficult to develop extended release dosage forms. There is a natural pH gradient from the acidity of the stomach where the pH of physiological fluids are typically around 1-2, through the weakly acidic duodenum to the virtually neutral environment of the small intestine where the pH is in the range of 5-8.

solubility (aqueous buffer, in 0.05 M phosphate buffer pH 6.8): 2 µg/mL (≈ 0.00512 mM)
solubility (simulated gastric fluid, in 0.1 N HCl): 6200 µg/mL (≈ 15.9 mM)
Compound: O=c1[nH]c2ccccc2n1CCN1CCN(c2cccc(C(F)(F)F)c2)CC1 [flibanserin, 1,3-dihydro-1-[2-[4-[3-(trifluoromethyl)phenyl]-1-piperazinyl]ethyl]-2H-benzimidazole-2-one]
